The results in this text go back to patent US7998460B2, “Prevention of deficits in neurogenesis with anti-inflammatory agents” (The Board of Trustees of the Leland Stanford Junior …, priority 2003, dated 2011).

Entries after “also recorded” stand apart in the source; their conditions may differ.

The test system of one series is adult rats. The series is described as follows: Barnes maze after LPS. It is filed as in vivo, rat. The text has this: LPS-induced inflammatory response impairs performance in the Barnes maze. It has been reported previously that irradiation and LPS-induced inflammation impair performance in hippocampus-dependent spatial tasks. The present studies confirm that LPS treatment impaired recall of a goal position learned prior to LPS treatment. The Barnes maze is a 6-foot diameter bright white platform with 8 escape boxes under holes in the rim of the platform. All escape holes are blocked except one and the rat is initially placed in the goal box for familiarization. The rat is then placed in the center of the maze and is allowed to find its way back to the goal box to escape the aversive brightly lit platform. Learning is seen as a decrease in the distance traveled to reach the goal box with consecutive trials on a given day and in repeat sessions on sequential days. One measure of recall is to determine distance traveled when the animal is tested on the same task after a time delay or after experimental treatments.
To determine if there were differences in recall following LPS treatment, animals were trained on the Barnes maze for 5 consecutive days prior to LPS treatment. LPS was given on day 0 and animals tested for recall on day 7. Low-dose intraperitoneal LPS treatment makes animals feel mildly ill and they will reduce their water and food intake for a period of one or two days. There is a temporary weight loss that is fully recovered by day 7.
Animals were weighed daily and after 7 days tested for memory retention on the Barnes maze. On days 8-11, animals were re-trained for their ability to learn the position of a new goal box in the Barnes maze. Animals were then tested on day 14 for the ability to remember the position of the second goal box. LPS caused a ˜14% increase in the distance traveled to the goal box learned prior to LPS treatment, indicating impaired spatial memory. LPS caused a significant increase (˜28%) in the distance traveled during day 8 trials used to learn the position of the new goal box (indicating impaired spatial learning) but all animals eventually learned the position of the goal box by day 11 (no difference in distance traveled between LPS and control groups).

Series [1] in a line: Sickness behavior and weight loss after LPS in mice. It counts as in vivo, mouse. Conditions: for effect of NSAID on LPS-induced sickness behavior and weight loss: oral NSAID course. The text has this: LPS-induced transient illness is associated with mild but persistent memory impairment. Hippocampal neurogenesis, a phenomenon that persists throughout life in men and mice alike, has been linked to learning and memory by several groups. Manipulations that chronically deplete hippocampal neurogenesis produce concomitant impairments in cognition, particularly hippocampus-dependent memory. […] To determine whether LPS-induced illness affects learning and/or memory during either the acute recovery phase or in asymptomatic mice, a single 0 or 5 mg/kg injection of LPS was administered with daily subcutaneous saline injections over 4 days to maintain hydration and their behavior examined in locomotor chambers and/or the Morris water maze task either in the week following treatment or beginning 4 weeks after treatment when the decrease in net neurogenesis is most apparent.
Subjects. All mice used as subjects in this study were treated in accordance with the policies set forth by the Stanford Animal Care and Use Committee and NIH regarding the ethical use of animals for experimentation. CB57BI/6 mice (7 wks old upon arrival from -Taconic) were housed in groups of 4-5 in autoclaved shoebox cages under standard conditions and were given free access to autoclaved Prolab Mouse 3000 chow (PMI Nutrition International, St. Louis, Mo.) and autoclaved tap water. […] Louis, Mo.) to induce transient illness (Day 0) and daily subcutaneous (s.c.) isotonic saline (0.5 ml) injections (Days 0-3) to prevent illness-induced dehydration. The cell synthesis marker bromodeoxyuridine (BrdU; Sigma Aldrich, St. Louis, Mo.) was injected i.p. (50 mg/kg at a concentration of 10 mg/ml in freshly prepared isotonic saline) once per day for 6 days to label dividing cells, beginning Day 0 (2 h after LPS). The mice were anesthetized with ketamine/xylazine and killed at Days 7 or 28 (to assess hippocampal neurogenesis during illness and just before behavioral testing, respectively) or Day 80 (to measure hippocampal neurogenesis following behavioural testing) by perfusion with 4% paraformaldehyde. Brains were post-fixed overnight in perfusate, microtome sectioned at 40 μm through the hippocampus and stored in tissue cryoprotectant solution at −20° C. until processed immunohistochemically.

The test system of a further series is C57BI/6 mice. The experiment in a line: Locomotor chambers and Morris water maze after LPS in mice. The note with it: for effect of NSAID on LPS-induced impairment of probe trial performance: oral NSAID course, training from Day 28. It is filed as in vivo, mouse. The method, then: Behavioral testing. Locomotor activity was measured in 17×17 inch chambers lined with three 16-beam infrared arrays in photocell boxes (MED Associates, Inc., St. Albans, Vt.). The mice were placed into the chambers and their locomotor activity was recorded for 20 minutes 4 days after LPS was injected (on Day 4). A 50 msec scanning rate was used for measuring beams broken. Distance traveled was analyzed for estimates of locomotion based on the movement of a given distance and resting delay (movement in a given period) using Open Field Activity software (MED Associates, Inc., St. Albans, Vt.).
Hippocampus-dependent learning and memory was assessed in the standard Morris water maze task. All hippocampus-dependent training and testing was conducted in a black circular tank (170 cm diameter×43 cm height) filled water made opaque using white non-toxic Tempra paint (Rich Art Color Co. Inc, Northvale, Calif.; training and testing). A platform (13 cm diameter×28.5 cm height) was hidden 1 cm below the water surface for platform shaping and training trials. Time and distance traveled in the pool was recorded using Videotrack Automated Behavioral Analysis System (Viewpoint Life Sciences Inc., Otterburn Park, Quebec).
Platform shaping began three days before platform training (Days 25-27). In the absence of extra-maze cues, mice were released from random points in the pool (filled with clearwater) near the platform and gently guided to the platform. Shaping trials continued until the mouse remained on the platform for 15 s over 3 consecutive trials on each of the three sessions.
[…] In the presence of extra-maze cues, the mice were released from the middle of the east, south, or west quadrant, facing the pool wall, and were given 120 s to find the platform hidden beneath opaque water in the center of the north quadrant. […] Sessions of 6 training trials (inter-trial interval of approximately 30 min) were conducted daily until all the mice located the platform in an average of 15 s or less within a session. […] Pathlength and latency were analyzed as measures of learning, swim speed was analyzed as a measure of sensorimotor ability and % time spent in outer annulus was analyzed as a measure of anxiety.
Probe Trial Testing was conducted at 1 week after mice reached criterion in the platform training phase of the experiment. The room setup was identical for platform training and probe trials, with the exception that the platform was removed from the pool during probe trials. The mice were given a single trial in which they were released from the center of the pool and then after 3 minutes were removed from the location that held the platform during training trials. Percent time and distance spent in each quadrant were analyzed as measures of memory, swim speed and total distance swum were analyzed as measures of sensorimotor ability and % time and distance spent in the outer annulus were analyzed as measures of anxiety. After the last probe trial, we ran four daily sessions of reversal trials (4 trials per session) in which mice were given 120 s to locate the platform hidden beneath opaque water in the south quadrant to better interpret whether probe trial performance was indicative of memory or perseveration. […] A visible platform session (2 trials) was administered after the final reversal trial to further test sensorimotor ability. Reversal and visible platform trial performance was scored identically to platform training performance.

The mark [2] stands for this setting: LPS 5 mg/kg, listed as Indomethacin.

As to `COc1ccc2c(c1)c(CC(=O)O)c(C)n2C(=O)c1ccc(Cl)cc1` [indomethacin], the “learning and memory, drug alone by intraperitoneal injection” value in the series on adult rats (indomethacin 2.5 mg/kg twice daily i.p., no LPS) was “perform more poorly in all tasks at all time points”. Moreover, the “learning and memory, oral drug alone” value in the series on adult rats (indomethacin 2.5 mg/kg twice daily oral, no LPS) was “no measurable effects”. The “effect on LPS effects on memory retention and learning of second goal box” value in the series on adult rats (oral indomethacin 2.5 mg/kg twice daily with LPS) is “completely reverse”. Moreover, the “effect of NSAID on LPS-induced sickness behavior and weight loss” value in series [1] (LPS 5 mg/kg) is given as “not significantly attenuated”; in series [1] (setting [2]) it was “not significantly affected”. In addition, the “effect of NSAID on LPS-induced impairment of probe trial performance” value is listed as “partially attenuated” with C57BI/6 mice (LPS 5 mg/kg) and “reversed the effects of LPS on probe trial performance” with C57BI/6 mice (setting [2]).

For lipopolysaccharide [LPS], the “increase in distance traveled to the goal box learned prior to LPS treatment” value in the series with adult rats (day 7 after LPS, memory retention) was about 14%. In addition, the “increase in distance traveled during day 8 trials to learn the new goal box” value in the series with adult rats (day 8 after LPS, spatial learning) is recorded as about 28%. In addition, the “days to recovery of body weight” value in series [1] (LPS 5 mg/kg) is 4 days; in series [1] (LPS 7.5 mg/kg), 5 days; in series [1] (LPS 10 mg/kg), 6 days. Besides, the “onset of sickness behavior (hunching, piloerection, sweaty fur)” value in series [1] (after LPS injection) was in the range of 1 to 2 h. Besides, the “day by which weight loss is fully restored” value in series [1] (lowest LPS dose tested) was at most 6 days. Further, the “loss of body weight” value in series [1] (lowest LPS dose tested (titration 5-10 mg/kg)) is listed as “roughly 20%”. Also, the “loss of body mass” value in series [1] (within 2 d following LPS injection) is listed as “approximately 10%”. In addition, the “total distance explored and duration spent exploring a novel chamber vs vehicle” value with C57BI/6 mice (LPS 5 mg/kg, Day 4) is recorded as “significantly smaller”. The “learning and remembering hidden platform position vs control, acute phase recovery” value with C57BI/6 mice (LPS 5 mg/kg, training from Day 7) is “equally efficient”. The “probe trial time in platform quadrant vs control” value with C57BI/6 mice (training commenced 4 weeks after LPS) is “significantly smaller amount of time; also recorded: significantly less time”.
